Like-named read-outs stand apart in the source and are kept apart here.
Key:
[1] = tested on: stimulated primary human T cells; experiment: T cell proliferation assay (rescue of proliferation in the presence of ATP); type: cell-based
Description: The aim of this study was to determine the potency of equilibrative nucleoside transporter 1 (ENT1) inhibitors to rescue proliferation by stimulated primary human T cells incubated in the presence of 100 uM Adenosine triphosphate (ATP), in baseline conditions (condition A) or in the presence of various proteins known to bind small molecules (condition B)
Condition B: X-VIVO15, 2% Human Serum Albumine (HSA) and 0.1% α-1-Acid Glycoprotein (AAG)
Cryopreserved purified human CD3+ T cells were thawed and washed twice with RPMI1640 medium, UltraGlutamine containing 10% hiFBS.
Cells were suspended in PBS containing 10% hiFBS. Cells were stained with CFSE by adding 2 μM solution in PBS, to get a final 1 μM CFSE solution. Cells were incubated while rotating for 5 minutes. Reaction was stopped by adding PBS with 10% FBS and cells were centrifuged for 5 minutes at 1500 rpm.
Cells were resuspended at 1.6×10^6 cells/mL, either in X-VIVO15 medium or in 4% Human Serum Albumin and 0.2% α-1-Acid Glycoprotein. 50 μL of cell suspension (8×10^4 T cells) was added to wells of sterile round-bottom 96-well plates. Cells were activated by adding 50 μL of anti-CD3 anti-CD28 coated microbeads, suspended either in XVIVO-15 medium or in 4% HSA and 0.2% α-1-Acid Glycoprotein, at a ratio of one microbead per two cells.
Serial dilutions of the ENT1 inhibitors were prepared in X-VIVO15 from 10 mM stock solutions in DMSO, and 50 μL was added to the wells.
ATP powder was diluted in X-VIVO15, and 50 μL of this compound was added to the wells to reach a final assay concentration of 100 μM. Final volume of 200 μL.
The experiments were also performed in 384 well plates—all volumes reduced by a factor of 4 (12.5 μL) with a final volume of 50 μL.
Experiments were performed in duplicate. The cells were placed in a 37° C. humidified tissue culture incubator with 5% CO2 for 72 hours for 96 well plates, 96 hours for 384 well plates After 72 or 96 hours, proliferation was measured determined by CFSE dilution via flow cytometry.

human ENT1 = target: T1, human ENT1 (Homo sapiens, UniProt Q99808); experiment: ENT1 binding assay (competition with Sahenta-DY647); conditions: JAR cells expressing ENT1; competition with Sahenta-DY647 (100 nM); 4° C.
T1 construct: JAR cells expressing ENT1 were bought from ATCC® (HTB-144TM); host or cells: JAR cells (human choriocarcinoma line, own knowledge)
T1 sequence (Q99808 1-456): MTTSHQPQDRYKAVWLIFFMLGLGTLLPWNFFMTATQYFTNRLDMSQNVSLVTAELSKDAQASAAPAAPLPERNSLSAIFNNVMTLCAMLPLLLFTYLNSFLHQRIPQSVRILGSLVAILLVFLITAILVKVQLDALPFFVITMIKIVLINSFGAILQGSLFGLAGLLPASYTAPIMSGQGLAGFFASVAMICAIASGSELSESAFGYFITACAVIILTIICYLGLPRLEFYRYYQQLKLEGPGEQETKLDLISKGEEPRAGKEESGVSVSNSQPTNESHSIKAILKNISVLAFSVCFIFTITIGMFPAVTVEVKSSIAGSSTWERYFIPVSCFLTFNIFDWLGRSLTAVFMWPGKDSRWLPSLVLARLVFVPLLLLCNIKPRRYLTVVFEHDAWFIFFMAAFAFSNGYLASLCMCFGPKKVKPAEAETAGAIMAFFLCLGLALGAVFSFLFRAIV
Description: The present assay aims at showing that the compounds of the present disclosure can bind to human ENT1. The principle of the assay is a competition between the compounds of this present disclosure and Sahenta-DY647, an ENT1 inhibitor that emits fluorescence (Ex=630 nm, Em=670 nm). By measuring the fluorescence at the end of the assay we could assess the binding potency of the compounds of the present disclosure.
JAR cells expressing ENT1 were bought from ATCC® (HTB-144TM). Cells were cultured in RPMI 1640 medium (LONZA®, #BE12-702F/U1) supplemented with 10% FBS (GIBCO®, #10270-106), 10 mM Hepes (LONZA®, #BE17-737E), 1 mM Sodium Pyruvate (LONZA®, #BE13-115E) and 2% Penicillin/Streptomycin (LONZA®, #DE17-603E) at 37° C. and 5% CO2. The assay was conducted on the following buffer: HBSS (LONZA®, #LO-527F) supplemented with 10 mM Hepes (LONZA®, #BE17-737E) and 0.1% BSA (Miltenyi®, #130-091-376) on the day of the assay.
JAR cells were resuspended in the described buffer. Compounds of the present disclosure and Sahenta-DY647 were diluted 200× in the described buffer.
A total of 50 000 cells were pre-incubated for 30 min at 4° C. with the compounds of the present disclosure before adding the corresponded IC90 of Sahenta-DY647 (100 nM) and incubate once more for 30 min at 4° C. The total volume of the reaction was 100 μL (50 μL of cells, 25 μL of the compounds of the present disclosure and 25 μL of Sahenta-DY647) in a 96 well plate, U-bottom (Greiner®, #650-180). The plates were washed 2× by centrifugation (4 min, 400 rcf at 4° C.) in the same buffer. Cells were re-suspended in 70 μL of the buffer and 50 μL was transferred to a Black 384 Optiplate (PerkinElmer®, #6007279). Fluorescence (Ex=630 nm, Em=670 nm) was acquired on a Spectramax i3x (Molecular Devices®).

[2] = Condition B: X-VIVO15, 2% Human Serum Albumine (HSA) and 0.1% α-1-Acid Glycoprotein (AAG), 100 μM ATP, read-out: (2) T Cell proliferation (Condition B) IC50
[3] = Homo sapiens, Condition A: X-VIVO15, 100 μM ATP, read-out: T Cell proliferation (Condition A) IC50

SMILES | IC50 [1, 2] [nM] | IC50 [1, 3] [nM] | IC50 (human ENT1) [nM]
COc1cc(C(=O)OC2CCCOc3cc(cc(OC)c3OC)COCCCN3CCCN(CC2)CC3)cc(OC)c1OC (racemic) [Compound 3] | < 1 | < 0.1 | < 1
COc1cc(C(=O)O[C@@H]2CCCOc3cc(cc(OC)c3OC)COCCCN3CCCN(CC2)CC3)cc(OC)c1OC (single isomer, unassigned) [Compound 4] | < 1 | < 0.1 | 1 to 20
COc1cc(C(=O)O[C@H]2CCCOc3cc(cc(OC)c3OC)COCCCN3CCCN(CC2)CC3)cc(OC)c1OC (single isomer, unassigned) [Compound 5] |  |  | 20 to 500
COc1cc(C(=O)O[C@H]2CCOc3cc(cc(OC)c3OC)C(=O)NCCCN3CCCN(CC2)CC3)cc(OC)c1OC (stereo in doubt) [Compound 38] |  |  | 500 to 1000
COc1cc2cc(c1OC)OCCCC(O/N=C/c1ccccc1)CCN1CCCN(CCCOC2)CC1 (stereo not drawn) [Compound 1] |  |  | 20 to 500
COc1cc2cc(c1OC)OCCCC(OC(=O)c1ccccc1)CCN1CCCN(CCCOC2)CC1 (stereo not drawn) [Compound 2] | > 500 | 1 to 20 | 1 to 20
COc1cc2cc(c1OC)OCCCC(OC(=O)CCC(=O)N1CCOCC1)CCN1CCCN(CCCOC2)CC1 (stereo not drawn) [Compound 6] | > 500 | < 1 | 1 to 20
COc1cc2cc(c1OC)OCCCC(OC(=O)c1cnnn1C)CCN1CCCN(CCCOC2=O)CC1 (stereo not drawn) [Compound 7] |  |  | 1 to 20
COc1cc2cc(c1OC)OCCCC(OC(=O)c1cn(C)nn1)CCN1CCCN(CCCOC2=O)CC1 (stereo not drawn) [Compound 8] |  |  | 1 to 20
COc1cc2cc(c1OC)OCCCC(OC(=O)c1cnn(C)c1)CCN1CCCN(CCCOC2=O)CC1 (stereo not drawn) [Compound 9] | 1 to 20 | < 0.1 | 1 to 20
COc1cc2cc(c1OC)OCCCC(OC(=O)c1ccnn1C)CCN1CCCN(CCCOC2=O)CC1 (stereo not drawn) [Compound 10] | 20 to 500 | < 0.1 | 1 to 20
COc1cc2cc(c1OC)OCCCC(OC(=O)c1ccn(C)n1)CCN1CCCN(CCCOC2=O)CC1 (stereo not drawn) [Compound 11] | > 500 | < 1 | 1 to 20
COc1cc2cc(c1OC)OCCCC(OC(=O)c1cc(C)nn1C)CCN1CCCN(CCCOC2=O)CC1 (stereo not drawn) [Compound 12] | 1 to 20 | < 1 | 1 to 20
COc1ccc(C(=O)OC2CCCOc3cc(cc(OC)c3OC)C(=O)OCCCN3CCCN(CC2)CC3)cc1 (stereo not drawn) [Compound 13] |  |  | 1 to 20
COc1cccc(C(=O)OC2CCCOc3cc(cc(OC)c3OC)C(=O)OCCCN3CCCN(CC2)CC3)c1 (stereo not drawn) [Compound 14] |  |  | 1 to 20
COc1cc(OC)cc(C(=O)OC2CCCOc3cc(cc(OC)c3OC)C(=O)OCCCN3CCCN(CC2)CC3)c1 (stereo not drawn) [Compound 15] | 1 to 20 | < 1 | 1 to 20
COc1ccc(C(=O)OC2CCCOc3cc(cc(OC)c3OC)C(=O)OCCCN3CCCN(CC2)CC3)cc1OC (stereo not drawn) [Compound 16] | 1 to 20 | < 0.1 | 1 to 20
[2H]C([2H])([2H])Oc1cc(C(=O)O[C@@H]2CCCOc3cc(cc(OC)c3OC)C(=O)NCCCN3CCCN(CC2)CC3)cc(OC([2H])([2H])[2H])c1OC([2H])([2H])[2H] [Compound 17] | 1 to 20 | < 0.1 | 1 to 20
COc1cc(C(=O)OC2CCCOc3cc(cc(OC)c3OC)C(=O)NCCN3CCCN(CC2)CC3)cc(OC)c1OC (stereo not drawn) [Compound 19] | 20 to 500 | < 1 | 1 to 20

SMILES | IC50 [1, 2] [nM] | IC50 [1, 3] [nM] | IC50 (human ENT1) [nM]
COc1cc2cc(c1OC)OCCCC(OC(=O)CCC(=O)N1CCOCC1)CCN1CCCN(CCCNC2=O)CC1 (stereo not drawn) [Compound 20] | > 500 | 1 to 20 | 20 to 500
COc1cc(C(=O)OC2CCCOc3cc(cc(OC)c3OC)C(=O)NCCC(=O)N3CCCN(CC2)CC3)cc(OC)c1OC (stereo not drawn) [Compound 21] | 1 to 20 | < 0.1 | 1 to 20
COc1cc2cc(c1OC)OCCCC(Oc1ncccn1)CCN1CCCN(CCCOC2=O)CC1 (stereo not drawn) [Compound 22] |  |  | 20 to 500
COc1cc2cc(c1OC)OCCCC(Oc1nccc3ccccc13)CCN1CCCN(CCCOC2=O)CC1 (stereo not drawn) [Compound 23] | 20 to 500 | 1 to 20 | 1 to 20
COc1cc2cc(c1OC)OCCCC(Oc1nncc3ccccc13)CCN1CCCN(CCCOC2=O)CC1 (stereo not drawn) [Compound 24] | 20 to 500 | < 0.1 | 1 to 20
COc1cc2cc(c1OC)OCCCC(Oc1ccn(C)n1)CCN1CCCN(CCCOC2=O)CC1 (stereo not drawn) [Compound 25] |  |  | 500 to 1000
COc1cc2cc(c1OC)OCCCC(OC(=O)N1CCOCC1)CCN1CCCN(CCCOC2=O)CC1 (stereo not drawn) [Compound 26] |  |  | 1 to 20
COc1cc2cc(c1OC)OCCCC(OC(=O)N1CCCCC1)CCN1CCCN(CCCOC2=O)CC1 (stereo not drawn) [Compound 27] |  |  | 1 to 20
COc1cc2cc(c1OC)OCCCC(n1ncc(-c3ccccc3)n1)CCN1CCCN(CCCOC2=O)CC1 (stereo not drawn) [Compound 28] | 20 to 500 | < 1 | 1 to 20
COc1cc(C(=O)OC2CCCOc3cc(cc(OC)c3OC)C(=O)NCCC(=O)N3CCN(CC2)CC3)cc(OC)c1OC (stereo not drawn) [Compound 31] |  |  | 20 to 500
COc1cc2cc(c1OC)OCCCCCCN1CCCN(CCCOC2=O)CC1 [Compound 32] |  |  | 500 to 1000
Cn1nnc2cc(C(=O)OC3CCCOc4cc(cc(Cl)c4Cl)C(=O)NCCCN4CCCN(CC3)CC4)ccc21 (stereo not drawn) [Compound 34] |  |  | 500 to 1000
COc1cc2cc(c1OC)OCCCC(OCc1ccccc1)CCN1CCCN(CCCOC2=O)CC1 (stereo not drawn) [Compound 35] |  |  | 500 to 1000
COc1cc(C(=O)OC2CCCOc3cccc(c3)-c3cn(nn3)CCCN3CCCN(CC2)CC3)cc(OC)c1OC (stereo not drawn) [Compound 36] |  |  | 20 to 500
COc1cc(C(=O)O[C@@H]2CCOc3cc(cc(OC)c3OC)C(=O)NCCCN3CCCN(CC2)CC3)cc(OC)c1OC [Compound 39] |  |  | 20 to 500
COc1cc(C(=O)OC2CCCOc3cc(cc(OC)c3OC)CCCCCN3CCCN(CC2)CC3)cc(OC)c1OC (stereo not drawn) [Compound 45] |  |  | 1 to 20
COc1cc(C(=O)OC2CCCOc3cc(cc(OC)c3OC)C#CCCS(=O)(=O)N3CCCN(CC2)CC3)cc(OC)c1OC (stereo not drawn) [Compound 46] |  |  | 20 to 500
COc1cc(C(=O)OCCCN2CCCN(CCCOC(=O)c3cc(OC)c(OC)c(OC)c3)CC2)cc(OC)c1OC [Dilazep, dilazep, reference compound] | 20 to 500 | 1 to 20 | 
